# Measured values: patent US20240002351A1, “QUINAZOLIN-4-ONE AND THIENO[2,3-D]PYRIMIDIN-4-ONE INHIBITORS OF ERBB4 (HER4) FOR USE IN THE TREATMENT OF CANCER” (UNIVERSITEIT ANTWERPEN, priority 2021, published 2024)
# Experiments:
# [1] = target: T1, ERBB4 (Homo sapiens, UniProt Q15303); test: PathHunter ERBB4/ERBB4 dimerization assay, dose-response curves; assay type: cell-based; conditions: U2OS ERBB4/ERBB4 dimerization cell line, 6 hours, compound alone; for Emax: NRG-1 = 100
# T1 construct: host or cells: U2OS
# Method: (§1) Following 1-12 passages, U2OS ERBB4/ERBB4 dimerization cell line (Eurofins, 93-0961C3) were seeded at 10,000 cells/well in 100 μL cell plating reagent (Eurofins, 93-0563R0A) in white walled 96-well plates (PerkinElmer, 6005680) and incubated for 24h at 37° C. in humidified atmosphere of 5% CO2 in air. Cells were treated with 10 μL of compound (prepared at 11×, Enamine), 10 μM Heregulin-β1 (NRG-1) (DiscoverX, 92-1031 or Peprotech, 100-03) or PBS. […] Cells were subsequently incubated for 6 hours at 37° C., 5% CO2. Then 110 μL PathHunter Flash Detection Reagents (93-0247) were added to each well and cells were incubated at room temperature for 1 hour (covered from light). Afterwards luminescence signal was measured using the Luminoskan Ascent (Thermofisher). Dose response curves of the compounds were performed in 2-fold (0,0625 μM-32 μM).
# From these curves, the EC50 and the Emax of the compounds was calculated.
# [2] = target: T1, ERBB4; test: PathHunter ERBB4/ERBB4 dimerization assay, compounds on top of 0.1 μM NRG-1 (identification of modulators); assay type: cell-based; conditions: for Emax: on top of 0.1 μM NRG1, relative to NRG1 (set as 100%); for behaviour from the shape of the dose-response curves: on top of 0.1 μM neuregulin-1 (FIG. 1); for EC50: on top of 0.1 μM NRG1
# Method: as §1
# Cells were treated with compound (prepared at 22×, 10 min pre-incubation) together with NRG-1 (0.1 μM final concentration, Peprotech, 100-03), or NRG-1 (0.1 μM final concentration) or PBS.
# The EC50 and the Emax of the compounds on top of 0.1 μM NRG1 is depicted in Table 3 relative to NRG1 (set as 100%).
# [3] = test system: EFO-21 cells; test: AK (adenylate kinase) toxicity assay; assay type: cell-based; conditions: 32 μM, 24 hours, EFO-21 cells (FIG. 3)
# Method: EFO-21 cells were seeded at 10,000 cells/well in 100 μL cell medium in white walled 96-well plates (PerkinElmer, 6005680) and incubated overnight at 37° C. in humidified atmosphere of 5% CO2 in air. Next, cells were put on serum starved (SS) medium (0,1% FBS) overnight. Overnight cell cultures were then stimulated with PBS, compound (32 μM, Enamine) and/or NRG-1 (0.1 μM, Peprotech, 100-03) for 24 hours at 37° C. in humidified atmosphere of 5% CO2 in air. […] Next, 100 μL Toxilight AK detection reagent was added to each well and incubated at room temperature for 5 minutes. Luminescence was measured using the Luminoskan Ascent (Thermofisher).
# [4] = test system: Human atrial cardiac fibroblasts (HCF); test: In vitro fibrosis assay, TGFβ-stimulated HCF (qRT-PCR); assay type: cell-based; conditions: TGFβ 10 ng/mL, 24 hours (FIG. 9)
# Method: Human dermal fibroblasts (HDF, Cell applications, 106-05A) were cultured in Dulbecco's modified Eagle's medium (DMEM, ThermoFisher Scientific, 11995065) supplemented with 10% (v/v) heat-inactivated fetal bovine serum (FBS, ThermoFisher Scientific, 10082147), 1% penicillin/streptomycin and 1 mL polymyxin B and were maintained at 37° C. in humidified atmosphere of 5% CO2 in air. Human atrial cardiac fibroblasts (HCF, Innoprot, P10454) were cultured in fibroblast medium (Innoprot, P60108) supplemented with fetal bovine serum, fibroblast growth supplement and penicillin/streptomycin and were maintained at 37° C. in humidified atmosphere of 5% CO2 in air.
# Following 1-9 passages, HDF and HCF were seeded at 0.3×10^6 cells/well in 1 mL cell medium in 12-well plates and incubated overnight at 37° C. in humidified atmosphere of 5% CO2 in air. Next, cells were put on serum starved medium (0.1% FBS) for 8 hours and then stimulated for 24 hours with either PBS, active compound (4-32 μM) or non-active compound (NA1, NA2; 4-32 μM) on top of TGFβ (10 ng/mL, Peprotech, 100-21). […] Next, cells were lysed using 100 μL lysis buffer RA1 (of RNA isolation kit below) supplemented with β-mercapto-ethanol (100:1), scraped with a cell scraper and transferred to centrifuge tubes to be stored at −20° C. for a maximum of 2 weeks before RNA isolation.
# RNA was extracted using Nucleospin RNA XS (Machery Nagel) according to the manufacturer's instructions. For cDNA synthesis, total RNA was added to a solution containing buffer with random hexamers and reverse transcriptase enzyme. The PCR was performed using the following parameters: 10 minutes at 25° C., 30 minutes at 48° C., 5 minutes at 95° C. RT-qPCR on the cDNA samples was performed using Taqman Universal PCR Master Mix (Applied Biosystems) and Taqman primers according to the manufacturer's instructions. […] Expression levels were calculated using the comparative cycle method and expressed as fold change to appropriate (background) control. […]
# [5] = Solubility in PBS (absorbance); assay type: physicochemical; conditions: aqueous buffer, kinetic from dmso stock, 37° C., 2 hours (FIG. 10), read-out: solubility: concentration at which easily soluble
# Method: A dilution series (0.16, 0.31, 0.62, 1.25, 2.5 and 5 mM) was made starting with a compound stock solution of 10 mM in DMSO. Aliquot of 4 μL was taken out of every dilution and added to 196 μL PBS in a 96-well plate. The plate was shaken for 10 seconds, incubated at 37° C. for 2 hours and thereafter absorbance was measured. Samples were analyzed in duplicate.
# [6] = Chemical stability; assay type: physicochemical; conditions: 37° C. and pH 7.4 for 24 hours (FIG. 11)
# Method: A 10 μL aliquot of compound solution (10 mM in DMSO) was added to 990 μL DMSO (100 μM) and further diluted with […] to a stock solution of 500 nM. The mixture was incubated at 37° C. Aliquots of 100 μL were taken at various time points (0, 0.5, 1, 2, 3, 6 and 24 hrs) and analyzed with LC-MS/MS (Waters Acquity H-class UPLC system with ion trap mass spectrometer, Bruker Daltonics Esquire 3000 plus, and Agilent 1100 Series LC system). Samples were analyzed in triplicate and plotted against a standard curve; compound at 31-500 nM in buffer solution of pH 7.4 (10 mM Potassium Phosphate, BD Gentest).
# [7] = Plasma stability, human plasma; assay type: in vitro ADME; conditions: 50 μM, 37° C., over 6 hours (FIG. 12)
# Method: (§2) A 5 μL aliquot of compound solution (10 mM in DMSO) was added to 995 μL of Non Swiss Albino Mouse Plasma (DivBioScience, Breda, Netherlands) or Pooled Normal Human plasma in sodium citrate to obtain a final concentration of 50 μM compound in plasma. The mixture was gently shaken for 6 hours at 37° C. Aliquots of 100 μL were taken at various time points (0, 0.5, 1, 2 and 6 hrs.) and diluted with 400 μL of cold acetonitrile (Sigma-Aldrich, stored at 4° C.). The suspension was centrifuged at 14000 rpm for 5 min. Thereafter, 50 μL of the supernatant was diluted with 950 μL of acetonitrile and analyzed with LC-MS/MS (Waters Acquity H-class UPLC system with ion trap mass spectrometer, Bruker Daltonics Esquire 3000 plus, and Agilent 1100 Series LC system). Samples were analyzed in triplicate and plotted against a standard curve (compound at 3.12-100 μM in plasma and diluted in acetonitrile as described above).
# [8] = Plasma stability, mouse plasma; assay type: in vitro ADME; conditions: 50 μM, 37° C., over 6 hours (FIG. 12)
# Method: as §2
# [9] = Metabolic stability, human liver microsomes; assay type: in vitro ADME
# Method: (§3) A mixture of 713 μL milliQ water (Millipore, MA, USA), 200 μL 0.5 M phosphate buffer (pH 7.4, BD Diagnostic Systems, MD, USA), 50 μL NADPH regenerating system solution A (BD Biosciences, CA, USA), 10 μL NADPH regenerating system solution B (BD Biosciences, CA, USA) and 2 μL compound (5 mM in DMSO) was prepared and heated for 5 min at 37° C. Twenty-five μL of liver microsomes (0.5 mg protein/mL, Corning B.V. Life Sciences, Amsterdam, Netherlands) was added to the mixture and 20 μL samples were withdrawn at 0, 0.25, 0.5 and 1, 2, 4, 6 and 24 hours. Eighty μL (4×20 μL) of cold acetonitrile (Sigma-Aldrich, MO, USA) was added to the samples on ice for 10 min. Afterwards, the mixtures were centrifuged at 13,000 rpm for 5 min at 4° C. Seventy-five μL of an acetonitrile/water (10/90) mixture was added to 25 μL supernatant and the obtained samples were analyzed by LC-MS/MS (Waters Acquity H-class UPLC system with ion trap mass spectrometer, Bruker Daltonics Esquire 3000 plus, and Agilent 1100 Series LC system) in triplicate.
# [10] = Metabolic stability, mouse liver microsomes; assay type: in vitro ADME
# Method: as §3
# T1 sequence (Q15303 26-1308): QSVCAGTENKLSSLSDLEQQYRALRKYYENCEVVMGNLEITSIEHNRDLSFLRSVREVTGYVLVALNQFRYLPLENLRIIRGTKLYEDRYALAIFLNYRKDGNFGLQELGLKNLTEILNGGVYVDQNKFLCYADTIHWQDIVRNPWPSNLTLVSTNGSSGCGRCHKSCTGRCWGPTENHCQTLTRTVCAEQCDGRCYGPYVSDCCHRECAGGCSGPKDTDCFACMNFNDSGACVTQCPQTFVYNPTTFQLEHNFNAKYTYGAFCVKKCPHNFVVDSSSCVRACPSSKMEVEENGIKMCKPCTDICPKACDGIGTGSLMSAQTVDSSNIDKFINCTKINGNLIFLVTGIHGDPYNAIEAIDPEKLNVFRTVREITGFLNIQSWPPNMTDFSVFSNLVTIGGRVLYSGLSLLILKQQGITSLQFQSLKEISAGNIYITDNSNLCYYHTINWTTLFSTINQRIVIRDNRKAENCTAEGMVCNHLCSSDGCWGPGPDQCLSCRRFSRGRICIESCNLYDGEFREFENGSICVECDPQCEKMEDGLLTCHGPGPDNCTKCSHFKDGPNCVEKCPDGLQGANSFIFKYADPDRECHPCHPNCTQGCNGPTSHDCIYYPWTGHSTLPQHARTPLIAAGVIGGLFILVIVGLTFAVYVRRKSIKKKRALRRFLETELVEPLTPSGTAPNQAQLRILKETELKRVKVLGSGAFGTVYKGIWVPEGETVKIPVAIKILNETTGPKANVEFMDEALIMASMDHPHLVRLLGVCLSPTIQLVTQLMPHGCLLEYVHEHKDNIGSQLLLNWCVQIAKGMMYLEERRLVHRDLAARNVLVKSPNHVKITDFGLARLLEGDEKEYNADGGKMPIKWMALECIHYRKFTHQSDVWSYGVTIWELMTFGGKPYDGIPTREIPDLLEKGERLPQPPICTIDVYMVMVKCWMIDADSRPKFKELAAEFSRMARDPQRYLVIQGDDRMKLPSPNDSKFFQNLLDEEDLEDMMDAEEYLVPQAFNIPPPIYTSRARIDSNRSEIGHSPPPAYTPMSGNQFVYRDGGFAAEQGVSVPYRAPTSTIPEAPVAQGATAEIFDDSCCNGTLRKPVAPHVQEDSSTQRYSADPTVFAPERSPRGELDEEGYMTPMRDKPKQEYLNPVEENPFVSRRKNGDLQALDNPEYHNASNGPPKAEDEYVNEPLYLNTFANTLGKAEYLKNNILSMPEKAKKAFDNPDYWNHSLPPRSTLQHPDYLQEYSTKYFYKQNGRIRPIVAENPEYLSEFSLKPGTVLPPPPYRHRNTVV
SMILES,EC50 [1],Emax [1],Emax [2],behaviour from the shape of the dose-response curves [2],toxicity (AK release) [3],col1a1 levels in comparison with TGFβ control [4],EC50 [2],solubility at 2 h [5],chemical stability [6],"plasma stability, human plasma [7]","plasma stability, mouse plasma [8]",t1/2 human ([9]; human liver microsomes),"half-life at 10 µM ([9]; human, liver microsomes, pH 7.4, human liver microsomes, read-out: t1/2 human)",t1/2 mouse ([10]; mouse liver microsomes),"half-life at 10 µM ([10]; mouse, liver microsomes, pH 7.4, mouse liver microsomes, read-out: t1/2 mouse)"
CC(=O)c1ccc(NC(=O)C(C)Sc2nc3ccccc3c(=O)n2C2CCCC2)cc1 (stereo not drawn) [Compound 2],10.9 µM,9.48 ± 2.13%,126 ± 36%,weak or silent allosteric modulators,,,,,,,,,,,
CC(Sc1nc2ccccc2c(=O)n1C1CCCC1)C(=O)N(C)c1ccccc1 (stereo not drawn) [Compound 3],15.8 µM,14.3 ± 2.63%,36 ± 13%,partial agonists or allosteric agonists functioning as partial agonists,limited toxicity,significantly decrease col1a1 levels,,,,,,,,,
CC(C)n1c(SC(C(=O)NC2CC2)c2ccccc2)nc2sc3c(c2c1=O)CCC3 (stereo not drawn) [Compound 4],7.54 µM,16.9 ± 3.69%,192 ± 34%,ago-allosteric modulators,,,~21.5 µM,< 25 µM,chemically stable,stable,stable,18 min,17 to 18 min,12 min,8 to 12 min
O=C1NCCCCC1Sc1nc2sc3c(c2c(=O)n1C1CCCC1)CCCC3 (stereo not drawn) [Compound 5],6.11 µM,17.7 ± 3.45%,63 ± 14%,partial agonists or allosteric agonists functioning as partial agonists,limited toxicity,,~3.36 µM,,,,,,,,
Cc1sc2cc(SCC(=O)NC(C)(C#N)C(C)C)n(C3CCCC3)c(=O)c2c1C (stereo not drawn) [Compound 8],20.4 µM,18.4 ± 3.47%,174 ± 38%,ago-allosteric modulators,,,,,,,,,,,
